Results reported in US5776957A, “Nornicotine enantiomers for use as a treatment for dopamine related conditions and disease states” (The University of Kentucky Research Foundation, priority 1996, dated 1998).
Entries after “also recorded” stand apart in the source; their conditions may differ. Read-outs that look alike come from different tables or passages of the source.

How the values were obtained:
[1] = system: mouse striatal synaptosomes; settings: Grady et al., 1992, cited from earlier work
[2] = NIC and metabolites in rat brain after s.c. injection of radiolabelled NIC; type: in vivo
Text: NIC metabolism studies involving HPLRC analysis invariably utilize NIC with a radiolabel (i.e., [^3 H], [^14 C] or [^11 C]) incorporated in the methyl group. However N-demethylated NIC metabolites (norNIC and norCOT) cannot be detected after injection of such radionuclides, since the label is lost in the formation of these metabolites. NIC and four NIC metabolites have recently been detected in rat brain 4 hr after s.c. injection of [2'-^14 C]NIC (FIG. 3, Table I). Three of these metabolites have been identified as COT, norNIC and norCOT. A fourth minor metabolite (Peak B) has not been completely identified but appears to be an N-demethylated metabolite, since it is not detected in the [^3 H-N-methyl]NIC studies.
COT, and therefore, is unlikely to originate from COT N-demethylation. 3-HydroxyCOT and its glucuronide conjugate were not detected as metabolites of either NIC or COT in brain, even though these are major biotransformation products in the periphery (Crooks, 1993).
It appears that NIC metabolites which accumulate with a time course that correlates with the development of behavioral sensitization to NIC have a role in eliciting sensitization to NIC. The inventors have detected NIC, COT, norNIC and norCOT in brain 4 hr following acute s.c. injection of (±)[2'-^14 C]NIC. S(-) [^3 H] -N-methyl]NIC is unsuitable for studying brain metabolism of NIC, since nor-metabolites (i.e., demethylated metabolites) cannot be detected due to [^3 H]-loss during metabolism (Crooks et al., 1995b, AP 7). Thus, commercially available (±)[2'-^14 C]NIC was used to determine NIC metabolites present in brain. This form of radiolabelled NIC provides a metabolically stable [^14 C]-label which allows measurement of all potential NIC metabolites.
A second "metabolite" (Peak A, FIG. 2) was also detected at each time point and most likely results from a combination of metabolic cleavage of the N-methyl group and dissociated-[^3 H], i e, Peak A represents an oxidized 1-carbon unit and indicates the extent of NIC N-demethylation. Note, in our subsequent studies with [2'-^14 C]NIC, Peak A was not observed, which is consistent with our interpretation of the results (Table 1).

[3] = system: [3H]DA-preloaded rat striatal slices (nicotinic receptors); experiment: [3H]overflow (DA release) from [3H]DA-preloaded rat striatal slices; type: cell-based
Protocol: In vitro pharmacological effects of NIC are generally investigated using either striatal slices or synaptosome preparations preloaded with [^3 H] DA. NIC-evoked [^3 H]overflow is obtained routinely in the presence of nomifensine (10 μM; a DA uptake inhibitor) and for pargyline (10 μM, a monoamine oxidase inhibitor) in the superfusion buffer, such that [^3 H]overflow represents primarily [^3 H]DA rather than [H]DA-metabolites (Zumstein et al., 1981, Hoffmann and Cubeddu, 1982, Dwoskin and Zahniser, 1986, Rapier et al., 1988), and for this reason, [^3 H]overflow also will be referred to as [^3 H] DA release in the proposal.
The present studies use striatal slices superfused with various concentrations of NIC or norNIC for prolonged periods.
FIG. 4. […] Insets illustrate the response to the low concentration range. […] NIC exposure indicated by the bar under time course. Note: 1-min sample collection period. […] N=4 rats.
Rat striatal slices were depolarized with 10 μM NIC, 20 mM K+or 1 Hz, 60 pulses or 3 Hz, 180 pulses electrical field stimulation. […] N=4.
MEC or DHβE was included in the superfusion buffer for 60 min prior to the addition of NIC, and superfusion continued for 60 min in the presence of NIC+antagonist.

[4] = Amphetamine drug discrimination (substitution tests); type: in vivo, rat
Protocol: Rats were trained in on two-lever food-reinforced operant tasks to discriminate amphetamine (1 mg/kg) from saline. After discrimination training stabilized, test doses of amphetamine (0.0625-2.0 mg/kg), nicotine (0.1-1.0 mg/kg) or nornicotine (1-10 mg/kg) were assessed for their ability to substitute for the amphetamine training dose during brief test sessions in which food reinforcement was withheld.
Nine male Sprague-Hawley rats were obtained from Harlan Industries (Indianapolis, Ind.) and were caged individually with water continuously available. Food access was restricted in order to maintain body weights at approximately 80% of free-feeding weight. Prior to the start of the experiment, all rats received a single injection of amphetamine (1 mg.kg, IP) as part of an unrelated experiment. Apparatus Six operant chambers (ENV-001, Med Associates, St. Albans, Vt.) enclosed in a sound attenuating environment were used. Located in the bottom center of the front panel in each chamber was a 5×4.-cm opening to a recessed food tray. Two metal response levers were located on the front panel, one on each side of the food tray. The center of each lever was mounted 7.3 cm from the grid floor. A 28-Vcue light, 3 cm in diameter, was centered 6 cm above each lever. A personal computer, interfaced to the chamber with Med Associates equipment, controlled the experimental sessions and collected data.
The general procedures utilized to establish amphetamine discrimination were similar to those outlined previously (13). Briefly, rats were first given access to food pellets (45 mg sucrose pellet, Noyes Co., Lancaster, N.H.) dispensed noncontingently into the food tray with both levers present. One lever was then removed and the rat was shaped to depress the other lever for food reinforcement. Following this, rats received 15-min daily sessions in which the lever (left or right) available for food reinforcement was alternated daily. […] The start of each session was signaled by the onset of both cue lights mounted above the levers, and the termination of each session was signaled by the offset of these lights. This training phase was continued until the rat earned 20 reinforces on an FR25 schedule for two days.
Amphetamine discrimination training was conducted Monday through Friday. For this training, both levers were mounted in the chamber. Amphetamine (A; 1 mg/kg) or saline (S), was injected IP 15 min prior to the start of the session, with the order of injections being either AASS or SSAA. The left lever was designated as the amphetamine-correct lever for 4 rats, while the right lever was amphetamine -correct for 5 rats. On Monday, Wednesday and Friday, injection-appropriate responding was food-reinforcedon an FR25 schedule for the entire 15-min session. However, 2-min extinction periods were instituted at the beginning of sessions on Tuesday and Thursday (one amphetamine and one saline test per week) to assess the control of amphetamine (or saline) over responding. […] During the remaining 13 min of these sessions, contingent reinforcement for injection-appropriate responding was reinstated. This phase of training was continued until the rat completed the first FR25 on the correct lever for 10 consecutive sessions and also completed 80% or more responses on the injection-appropriate lever during 4 consecutive extinction periods.
The substitution phase was identical to the previously described amphetamine discrimination phase, except for the Friday session, which was decreased to a 4-min extinction session with no food available.

[5] = cited from earlier work
[6] = rat brain, 4 hrs after s.c. injection, Table 1, footnote e
[7] = rat brain, 4 hrs after s.c. injection, Table 1, footnote f

Compound: c1cncc(C2CCCN2)c1 (racemic) [(±) norNIC]
- evoked [3H]overflow / [3H]DA release [1]: concentration dependent increase
- evoked [3H]overflow / [3H]DA release ([1]; listed as (+) nornicotine): concentration-dependent increase

Compound: CN1CCC[14CH]1c1cccnc1 (racemic) [[^14 C-2']-NIC]
- Percent of Total Radiolabel: COT [2, 6]: 60.8 ± 0.63%
- Percent of Total Radiolabel: NIC [2, 6]: 24.2 ± 2.94%
- Percent of Total Radiolabel: Peak A [2, 6]: 0.0 ± 0.0%
- Percent of Total Radiolabel: Peak B [2, 6]: 0.0 ± 0.0%
- Percent of Total Radiolabel: norNIC [2, 6]: 15.1 ± 2.54%
- Percent of Total Radiolabel: COT [2, 7]: 62.9 ± 5.27%
- Percent of Total Radiolabel: NIC [2, 7]: 14.2 ± 3.30%
- Percent of Total Radiolabel: Peak A [2, 7]: 0.0 ± 0.0%
- Percent of Total Radiolabel: Peak B [2, 7]: 2.33 ± 0.12%
- Percent of Total Radiolabel: norCOT [2, 7]: 4.15 ± 0.48%
- Percent of Total Radiolabel: norNIC [2, 7]: 16.5 ± 2.04%

Compound: CN1C(=O)C(O)CC1c1cccnc1 (stereo not shown) [3-HydroxyCOT]
- presence as metabolite in brain ([2]; rat, in vivo, sc): not detected

Compound: CO[C@H]1CC=C2CCN3CCC4=C(CC(=O)OC4)[C@]23C1 [DHβE, dihydro-β-erythroidine]
- inhibition of NIC-evoked [3H]overflow ([3]; 10 μM NIC, concentration-dependent): robustly inhibited
- effect on [3H]DA release itself ([3]; 100 μM): evoked the release of [^3 H]DA itself
- inhibition of norNIC-evoked [3H]overflow ([3]; high concentrations (100 μM-3 mM) of norNIC): ineffective in inhibiting
- inhibition of norNIC-evoked [3H]overflow ([3]; low concentrations (<100 μM) of norNIC): effectively inhibited
- mode of antagonism of norNIC response ([3]; norNIC concentration-response curve): competitive

Compound: O=C1CCC(c2cccnc2)N1 (stereo not shown) [NorCOT, norcotinine]
- presence as metabolite in brain ([2]; rat brain, after s.c. radiolabelled NIC): minor CNS metabolite of NIC

Compound: CC(N)Cc1ccccc1 (stereo not drawn) [amphetamine, d-Amphetamine]
- substitution for amphetamine training dose ([4]; 1 and 2 mg/kg): substituting fully; also recorded: substituted fully
- amphetamine-appropriate responding ([4]; 1 and 2 mg/kg IP, 15 min): greater than 80%
- total number of lever presses ([4]; 15 min): dose-related decrease in total number of lever presses
- cross-sensitization between nicotine and amphetamine [5]: has not been observed

Compound: CCN1CCC[C@H]1CNC(=O)c1c(O)c(Cl)cc(Cl)c1OC [raclopride]
- effect on overflow evoked by 1 or 3 Hz stimulation ([3]; 1 μM, electrical field stimulation): increases overflow
